In patent publication US9809550B2, “Quinolyl hydrazones for the treatment of tuberculosis and related diseases” (TECNIMEDE SOCIEDADE TECNICO-MEDICINAL S.A., priority 2012, dated 2017):

System: Mycobacterium smegmatis
Assay: In vitro Mycobacterium smegmatis growth inhibition assay (suspension turbidity)
Format: cell-based
Conditions: for Inhibitory activity against Mycobacterium smegmatis growth, in words, compared with RMP: versus active control RMP; for IC50: Mycolicibacterium smegmatis, four parameter curve fit of the 96 hours growth data, read-out: IC50 (concentration to inhibit 50% of the Mycobacterium smegmatis growth)

| Compound | Inhibitory activity against Mycobacterium smegmatis growth, in words, compared with RMP | IC50 | % of Celular Growth at 96 hours (concentration 1.23 uM) | % of Celular Growth at 96 hours (concentration 3.70 uM) | % of Celular Growth at 96 hours (concentration 11.11 uM) | % of Celular Growth at 96 hours (concentration 33.33 uM) | % of Celular Growth at 96 hours (concentration 100.00 uM) |
| --- | --- | --- | --- | --- | --- | --- | --- |
| 3,5-dibromo-2-hydroxybenzaldehyde (2-pyridinyl)hydrazine [Compound no. 42] | superior inhibitory activity |  |  |  |  |  |  |
| Oc1ccc(Br)cc1C=NNc1ccc2ccccc2n1 [Compound no. 76, 5-bromo-2-hydroxybenzaldehyde 2-quinolinylhydrazone] | better IC50 values than RMP | 16.2 µM | 118.35% | 113.44% | 121.72% | 43.92% | 51.50% |
| Cc1cc(NN=Cc2ccccc2O)nc2ccccc12 [Compound no. 77, 2-hydroxybenzaldehyde-(4-methyl-2-quinolinyl)hydrazone] | better IC50 values than RMP | 6.59 µM | 77.17% | 57.42% | 29.14% | 22.41% | 34.09% |
